# Calls of active or inactive are those of the source. The rule behind the calls is not given here.
# Columns and labels:
# Assay type in all cases: functional, cell-based
# [1] = test system: HeLa; experiment: Cytotoxicity against human HeLa cells assessed as inhibition of cell growth after 12 to 48 hrs by MTT assay
# [2] = test system: HeLa; experiment: Cytotoxicity against human HeLa cells assessed as inhibition of cell growth at 5 to 20 uM by MTT assay; settings: TDE = time-dependent effect
# [3] = test system: HeLa; experiment: Induction of apoptosis in human HeLa cells assessed as formation of apoptotic bodies at 10 uM after 24 hrs by phase contrast microscopic analysis
# [4] = test system: HeLa; experiment: Induction of apoptosis in human HeLa cells assessed as chromatin condensation at 10 uM after 24 hrs by AO staining-based microscopic analysis
# [5] = test system: HeLa; experiment: Induction of apoptosis in human HeLa cells assessed as nuclear fragmentation at 10 uM after 24 hrs by AO staining-based microscopic analysis
# [6] = test system: HeLa; experiment: Induction of apoptosis in human HeLa cells assessed as increase in subG0/G1 ratio after 24 hrs by PI staining-based flow cytometry
# [7] = test system: HeLa; experiment: Induction of apoptosis in human HeLa cells assessed as increase in subG0/G1 ratio at 10 uM after 24 hrs in presence of ZVAD by PI staining-based flow cytometry
# [8] = test system: HeLa; experiment: Induction of apoptosis in human HeLa cells assessed as reduction in mitochondrial membrane potential at 5 to 20 uM after 24 hrs by Rhodamine123 staining-based flow cytometry
# [9] = test system: HeLa; experiment: Upregulation of Fas in human HeLa cells at 5 to 20 uM after 24 hrs by Western blot analysis
# [10] = test system: HeLa; experiment: Upregulation of FasL in human HeLa cells at 5 to 20 uM after 24 hrs by Western blot analysis
# [11] = test system: HeLa; experiment: Upregulation of FADD in human HeLa cells at 5 to 20 uM after 24 hrs by Western blot analysis
# [12] = test system: HeLa; experiment: Upregulation of caspase-8 in human HeLa cells at 5 to 20 uM after 24 hrs by Western blot analysis
# [13] = test system: HeLa; experiment: Upregulation of caspase-3 in human HeLa cells at 5 to 20 uM after 24 hrs by Western blot analysis
# [14] = test system: HeLa; experiment: Induction of apoptosis in human HeLa cells assessed as increase in Bax/Bcl-2 ratio at 5 to 20 uM after 24 hrs by Western blot analysis
# [15] = test system: HeLa; experiment: Induction of apoptosis in human HeLa cells assessed as increase in cytochrome c release from mitochondria to cytosol at 5 to 20 uM after 24 hrs by Western blot analysis
# [16] = test system: HeLa; experiment: Induction of autophagy in human HeLa cells after 24 hrs by MDC staining-based flow cytometry
# [17] = test system: HeLa; experiment: Induction of autophagy in human HeLa cells at 10 uM after 24 hrs by MDC staining-based fluorescence microscopic analysis
# [18] = test system: HeLa; experiment: Induction of autophagy in human HeLa cells after 24 hrs in presence of 3MA by MDC staining-based flow cytometry
# [19] = test system: HeLa; experiment: Upregulation of beclin 1 in human HeLa cells at 5 to 20 uM after 24 hrs by Western blot analysis
# [20] = test system: HeLa; experiment: Induction of autophagy in human HeLa cells assessed as conversion of LC3 1 to LC3 2 at 5 to 20 uM after 24 hrs by Western blot analysis
# [21] = test system: HeLa; experiment: Induction of autophagy in human HeLa cells assessed as conversion of LC3 1 to LC3 2 at 5 to 20 uM after 24 hrs in presence of 3MA by Western blot analysis
# [22] = test system: HeLa; experiment: Upregulation of beclin 1 in human HeLa cells at 5 to 20 uM after 24 hrs in presence of 3MA by Western blot analysis
# [23] = test system: HeLa; experiment: Cytotoxicity against human HeLa cells assessed as inhibition of cell growth after 24 hrs in presence of 3MA by MTT assay
# [24] = test system: HeLa; experiment: Induction of ROS generation in human HeLa cells at up to 5 uM after 24 hrs by H2DCF-DA staining-based flow cytometry
# [25] = test system: HeLa; experiment: Induction of ROS generation in human HeLa cells at 10 to 20 uM after 24 hrs by H2DCF-DA staining-based flow cytometry
# [26] = test system: HeLa; experiment: Induction of ROS generation in human HeLa cells at 10 uM in presence of NAC by H2DCF-DA staining-based flow cytometry
# [27] = test system: HeLa; experiment: Induction of autophagy in human HeLa cells in presence of NAC by MDC staining-based flow cytometry
# [28] = test system: HeLa; experiment: Induction of apoptosis in human HeLa cells assessed as increase in subG0/G1 ratio in presence of NAC by PI staining-based flow cytometry
# [29] = test system: HeLa; experiment: Induction ROS generation in human HeLa cells in presence of ZVAD by flow cytometry
# [30] = test system: HeLa; experiment: Induction ROS generation in human HeLa cells in presence of 3MA by flow cytometry
# [31] = test system: HeLa; experiment: Induction of apoptosis in human HeLa cells assessed as increase in subG0/G1 ratio preincubated with 3MA for 1 hr followed by compound treatment at 10 uM for 24 hrs by PI staining-based flow cytometry
# [32] = test system: HeLa; experiment: Induction of autophagy in human HeLa cells preincubated at 10 uM in presence of ZVAD for 24 hrs by MDC staining-based flow cytometry
smiles,measurement,setting,value
COc1ccc(-c2nc3cc(Oc4ccc5[nH]c(-c6ccc(OC)cc6)nc5c4)ccc3[nH]2)cc1,Activity,[1],Dose-dependent effect
same,inhibition,[2],Tde
same,Activity,[3],Active
same,Activity,[4],Active
same,Activity,[5],Active
same,Activity,[6],Dose-dependent effect
same,Activity,[7],inactive
same,Activity,[8],Active
same,Activity,[9],Active
same,Activity,[10],Active
same,Activity,[11],Active
same,Activity,[12],Active
same,Activity,[13],Active
same,Activity,[14],Active
same,Activity,[15],Active
same,Activity,[16],Dose-dependent effect
same,Activity,[17],Active
same,Activity,[18],inactive
same,Activity,[19],Active
same,Activity,[20],Active
same,Activity,[21],inactive
same,Activity,[22],inactive
same,Activity,[23],inactive
same,Activity,[24],Active
same,Activity,[25],inactive
same,Activity,[26],inactive
same,Activity,[27],inactive
same,Activity,[28],inactive
same,Activity,[29],inactive
same,Activity,[30],inactive
same,Activity,[31],inactive
same,Activity,[32],Active

# From ChEMBL document CHEMBL4477256, “Newly synthesized bis-benzimidazole compound 8 induces apoptosis, autophagy and reactive oxygen species generation in HeLa cells” (Bioorg Med Chem Lett, 2016)
